Values belong to the compound of their own block, whether it stands above or below them. Activity calls are given as the source filed them. No cut-off for these calls is given here.
Tests used:
4T1 [1] = assay: Induction of DNA damage in mouse 4T1 cells assessed as decrease in PARP1 level at 2 uM incubated for 24 hrs by Western blot analysis; assay type: functional, cell-based
B16-F10 [2] = assay: Induction of antitumor immunity in mouse B16-F10 cells implanted in male C57BL/6J mouse assessed as CD3+CD4+ T cell infiltration at 50 mg/kg, IG treated for 14 days consecutively by flow cytometry (reference value: 7.4 %); assay type: functional; conditions: time 14 day
[3] = target: T1, Histone deacetylase 3 (Mus musculus) (UniProt O88895); assay: In vivo inhibition of HDAC3 in mouse B16-F10 cells implanted in male C57BL/6J mouse assessed as increase in Ac-H3 level at 50 mg/kg, IG treated for 14 days consecutively by Western blot analysis; assay type: functional, organism-based; conditions: time 14.0 day
T1 sequence (whole entry): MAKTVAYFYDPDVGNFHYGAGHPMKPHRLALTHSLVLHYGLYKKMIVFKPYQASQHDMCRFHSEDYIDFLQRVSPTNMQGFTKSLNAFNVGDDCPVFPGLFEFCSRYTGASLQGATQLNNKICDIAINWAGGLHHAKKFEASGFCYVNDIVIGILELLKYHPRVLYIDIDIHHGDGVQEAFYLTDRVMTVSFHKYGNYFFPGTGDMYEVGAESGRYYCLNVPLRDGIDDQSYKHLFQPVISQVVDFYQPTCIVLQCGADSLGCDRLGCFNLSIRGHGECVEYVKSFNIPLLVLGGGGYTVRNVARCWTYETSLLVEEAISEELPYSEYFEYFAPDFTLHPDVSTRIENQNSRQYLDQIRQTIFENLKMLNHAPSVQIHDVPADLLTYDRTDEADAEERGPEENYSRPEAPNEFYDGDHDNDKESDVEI

4T1 [4] = assay: Synergistic induction of DNA damage in mouse 4T1 cells assessed as increase in gamma-H2AX level at 1 uM incubated for 24 hrs in presence of Olaparib by Western blot analysis; assay type: functional, cell-based
4T1 [5] = assay: Induction of DNA damage in mouse 4T1 cells assessed as increase in gamma-H2AX level at 2 uM incubated for 24 hrs by Western blot analysis; assay type: functional, cell-based
[6] = target: T1, Histone deacetylase 3 (Mus musculus); assay: In vivo inhibition of HDAC3 in mouse B16-F10 cells implanted in male C57BL/6J mouse assessed as decrease in PD-L1 level at 50 mg/kg, IG treated for 14 days consecutively by Western blot analysis; assay type: functional, organism-based; conditions: time 14.0 day
4T1 [7] = assay: Induction of DNA damage in mouse 4T1 cells assessed as decrease in PARP1 level at 5 uM by immunofluorescence based analysis; assay type: functional, cell-based
4T1 [8] = assay: Synergistic induction of DNA damage in mouse 4T1 cells assessed as decrease in PARP1 level at 1 uM incubated for 24 hrs in presence of Olaparib by Western blot analysis; assay type: functional, cell-based
Mus musculus = assay: Effect on Ac-alpha-tubulin in mouse B16-F10 cells implanted in male C57BL/6J mouse at 50 mg/kg, IG treated for 14 days consecutively by Western blot analysis; assay type: functional, organism-based; conditions: time 14.0 day
4T1 [9] = assay: Induction of DNA damage in mouse 4T1 cells assessed as increase in gamma-H2AX level at 5 uM by immunofluorescence based analysis; assay type: functional, cell-based
B16-F10 [10] = assay: Induction of antitumor immunity in mouse B16-F10 cells implanted in male C57BL/6J mouse assessed as CD3+CD8+ T cell infiltration at 50 mg/kg, IG treated for 14 days consecutively by flow cytometry (reference value: 10 %); assay type: functional; conditions: time 14 day
[11] = target: T1, Histone deacetylase 3 (Mus musculus); assay: In vivo inhibition of HDAC3 in mouse B16-F10 cells implanted in male C57BL/6J mouse assessed as increase in Ac-H3 level at 50 mg/kg, IG treated for 14 days consecutively by immunofluorescence based analysis; assay type: functional, organism-based; conditions: time 14.0 day
B16-F10 [12] = assay: Induction of antitumor immunity in mouse B16-F10 cells implanted in male C57BL/6J mouse assessed as CD3+CD8+ T cell infiltration at 20 mg/kg, IG treated for 14 days consecutively by flow cytometry (reference value: 10 %); assay type: functional; conditions: time 14 day
B16-F10 [13] = assay: Antitumor activity against mouse B16-F10 cells implanted in male C57BL/6J mouse at 20 mg/kg, IG treated for 14 days consecutively relative to control; assay type: functional; conditions: B16-F10, po, 336 h, time 14 day, read-out: TGI
B16-F10 [14] = assay: Induction of antitumor immunity in mouse B16-F10 cells implanted in male C57BL/6J mouse assessed as CD3+CD4+ T cell infiltration at 20 mg/kg, IG treated for 14 days consecutively by flow cytometry (reference value: 7.4 %); assay type: functional; conditions: time 14 day
4T1 [15] = assay: Induction of DNA damage in mouse 4T1 cells assessed as decrease in PARP1 level at 1 uM by immunofluorescence based analysis; assay type: functional, cell-based
4T1 [16] = assay: Induction of DNA damage in mouse 4T1 cells assessed as increase in gamma-H2AX level at 1 uM by immunofluorescence based analysis; assay type: functional, cell-based
4T1 [17] = assay: Antitumor activity against mouse 4T1 cells implanted in mouse at 20 mg/kg/day relative to control; assay type: functional; conditions: read-out: TGI
4T1 [18] = assay: Induction of DNA damage in mouse 4T1 cells implanted in mouse assessed as increase in gamma-H2AX level at 20 mg/kg/day by immunofluorescence based analysis; assay type: functional, organism-based
4T1 [19] = assay: Induction of DNA damage in mouse 4T1 cells implanted in mouse assessed as increase in gamma-H2AX level at 20 mg/kg/day by Western blot analysis; assay type: functional, organism-based
4T1 [20] = assay: Induction of DNA damage in mouse 4T1 cells implanted in mouse assessed as decrease in PARP level at 20 mg/kg/day by Western blot analysis; assay type: functional, organism-based
4T1 [21] = assay: Induction of DNA damage in mouse 4T1 cells implanted in mouse assessed as decrease in PARP level at 20 mg/kg/day by immunofluorescence based analysis; assay type: functional, organism-based

inhibition [3]: Active
inhibition [6]: Active
inhibition [11]: Active
Structure (SMILES): O=C(CCCCCCC(=O)Nc1ccccc1)NO [VORINOSTAT]
Activity (4T1 [1]): Active
Activity (B16-F10 [2]): 18%
Activity (4T1 [4]): Active
Activity (4T1 [5]): Active
Activity (4T1 [7]): Active
Activity (4T1 [8]): Active
Activity (Mus musculus): No effect
Activity (4T1 [9]): Active
Activity (B16-F10 [10]): 17%

Structure (SMILES): Cc1c(COc2cc(OCc3cccc(C#N)c3)c(CNC(C)(C)C(=O)O)cc2Cl)cccc1-c1ccccc1
Activity (B16-F10 [12]): 31%
inhibition in vivo at 20 mg/kg (B16-F10 [13]): 33%
Activity (B16-F10 [14]): 23%

Structure (SMILES): O=C(c1cc(Cc2n[nH]c(=O)c3ccccc23)ccc1F)N1CCN(C(=O)C2CC2)CC1 [OLAPARIB]
Activity (4T1 [1]): Active
Activity (4T1 [15]): Active
Activity (4T1 [16]): Active
inhibition in vivo at 20 mg/kg/day (4T1 [17]): 49%
Activity (4T1 [18]): Active
Activity (4T1 [5]): Active
Activity (4T1 [19]): Active
Activity (4T1 [20]): Active
Activity (4T1 [21]): Active
